CC1=CC(=O)[N-]S(=O)(=O)O1.[K+]
Settings | solubility (mole fraction)
in ethanol, 277.1 K | 0.000123
in ethanol, 282.39 K | 0.000154
in ethanol, 287.47 K | 0.000176
in ethanol, 292.3 K | 0.0002
in ethanol, 297.55 K | 0.000226
in ethanol, 302.65 K | 0.000259
in ethanol, 307.9 K | 0.0003
in ethanol, 312.93 K | 0.000396
in ethanol, 317.87 K | 0.000496
in ethanol, 322.9 K | 0.000634
in methanol, 277.7 K | 0.000156
in methanol, 281.79 K | 0.000173
in methanol, 286.1 K | 0.000189
in methanol, 290.39 K | 0.000205
in methanol, 294.2 K | 0.000222
in methanol, 298.51 K | 0.000238
in methanol, 302.21 K | 0.000256
in methanol, 307.8 K | 0.000288
in methanol, 311.39 K | 0.000313
in methanol, 315.47 K | 0.000341
in methanol, 319.3 K | 0.000371
in methanol, 322.8 K | 0.000401
in water, 277.98 K | 0.000151
in water, 281.23 K | 0.000167
in water, 284.73 K | 0.000186
in water, 288.35 K | 0.000207
in water, 294.9 K | 0.000249
in water, 298.02 K | 0.000271
in water, 301.03 K | 0.000292
in water, 304.01 K | 0.000314
in water, 307.07 K | 0.000338
in water, 310.24 K | 0.000363
in water, 313.53 K | 0.00039
in water, 317.3 K | 0.000419
in water, 322.3 K | 0.000474

From BigSolDB 2.1
